Molecular target: T1, human SK3 channel (hKCa2.3) (Homo sapiens, UniProt Q9UGI6)
T1 construct: expressed in transfected cells
Assay: Automated whole cell patch-clamp (QPatch 16 HT), inhibition of SK3 current
Assay type: cell-based
Conditions: HEK-293 cells stably expressing hKCa2.3; symmetrical K+ solutions, free calcium 400 nM; effects normalized to N-methyl bicuculline
Experimental: Automated whole cell patch-clamp recordings were performed using a QPatch 16 HT system and single-hole Qplates (Biolin Scientific, Sophion, Denmark) on HEK-293 cells stably expressing the human SK3 channel (hKCa2.3). Cells were cultured and prepared for experiments using normal cell culturing procedures. A total of 4-5 million cells were used per experiment. The Qpatch automatically generates giga sealing, whole-cell formation, compound application and recording of current. hKCa2.3 currents were recorded in symmetrical K^+ solutions, with an intracellular solution consisting of in mM: KCl 108; KOH/EGTA (ethylene glycol-bis(2-aminoethylether)-N,N,N′,N′-tetraacetic acid) 31.25/10; CaCl2) 8.1; MgCl2 1.2; HEPES (2-[4-(2-hydroxyethyl)piperazin-1-yl]ethanesulfonic acid) 10; KOH 15, pH adjusted to pH=7.2 with HCl. The free calcium concentration was calculated to 400 nM. The extracellular solution consisted of in mM: KCl 150; CaCl2) 0.1; MgCl2 3; HEPES 10; Glucose 10, pH=7.4 with KOH. The cells were held at 0 mV and hKCa2.3 currents were elicited by a linear voltage ramp from […] (200 ms in duration) applied every 5th second. The compound application protocol consisted of 12 recording periods lasting from 50-200 s: 1) Baseline recordings in extracellular solution; 2) Application of the positive control N-methyl bicuculline (100 μM), which is characterized by full efficacy, fast on- and off-rate; 3-4) Wash-out; 5-9) Increasing concentrations of test compound to establish an IC50 value; 10-11) Wash-out; 12) positive control with compound NS8593 (N-[(1R)-1,2,3,4-tetrahydro-1-naphthalenyl]-1H-benzimidazol-2-amine) (1 μM). Data were sampled at 10 kHz, 4th order Bessel filter, cut-off frequency 3 kHz. Currents were compensated for run-down. Potency was quantified as the concentration needed to inhibit half of the SK channel activity and reported as an IC50 value. All effects of compounds of the present invention as tested were normalized to the observed inhibitory effect of N-methyl bicuculline.

| SMILES | IC50 [µM] |
| --- | --- |
| CCN(CCO)C(=O)C(Cc1cccc(C(F)(F)F)c1)Nc1nc2ccccc2[nH]1 (centres unmarked) [Example 64, 2-[(1H-1,3-benzodiazol-2-yl)amino]-N-ethyl-N-(2-hydroxyethyl)-3-[3-(trifluoromethyl)phenyl]propanamide] | 10 to 100 |
| O=C(CC(Nc1nc2ccccc2[nH]1)c1cccc(C(F)(F)F)c1)NCc1nccs1 (centres unmarked) [Example 75, 3-[(1H-1,3-benzodiazol-2-yl)amino]-N-(1,3-thiazol-2-ylmethyl)-3-[3-(trifluoromethyl)phenyl]propanamide] | < 10 |
| O=C(CC(Nc1nc2ccccc2[nH]1)c1cccc(SC(F)(F)F)c1)NCCOC(F)(F)F (centres unmarked) [Example 81, 3-[(1H-1,3-benzodiazol-2-yl)amino]-N-[2-(trifluoromethoxy)ethyl]-3-{3-[(trifluoromethyl)sulfanyl]phenyl}propanamide] | < 10 |
| CCN(CCO)C(=O)CC(Nc1nc2ccccc2[nH]1)c1ccc(C)c(Cl)c1 (centres unmarked) [Example 20, 3-[(1H-1,3-benzodiazol-2-yl)amino]-3-(3-chloro-4-methylphenyl)-N-ethyl-N-(2-hydroxyethyl)propanamide] | < 10 |
| COC(=O)CNC(=O)CC(Nc1nc2ccccc2[nH]1)c1cccc(C(F)(F)F)c1 (centres unmarked) [Example 59, Methyl 2-{3-[(1H-1,3-benzodiazol-2-yl)amino]-3-[3-(trifluoromethyl)phenyl]propanamido}acetate] | < 10 |
| CCOC(=O)CNC(=O)CC(Nc1nc2ccccc2[nH]1)c1cccc(C(F)(F)F)c1 (centres unmarked) [Example 23, Ethyl 2-{3-[(1H-1,3-benzodiazol-2-yl)amino]-3-[3-(trifluoromethyl)phenyl]propanamido}acetate] | < 10 |
| O=C(CC(Nc1nc2ccccc2[nH]1)c1cccc(C(F)(F)F)c1)NCCOCC(F)(F)F (centres unmarked) [Example 68, 3-[(1H-1,3-benzodiazol-2-yl)amino]-N-[2-(2,2,2-trifluoroethoxy)ethyl]-3-[3-(trifluoromethyl)phenyl]propanamide] | < 10 |
| O=C(CC(Nc1nc2c(CO)cccc2[nH]1)c1cccc(C(F)(F)F)c1)NCCOC(F)(F)F (centres unmarked) [Example 94, 3-{[4-(hydroxymethyl)-1H-1,3-benzodiazol-2-yl]amino}-N-[2-(trifluoromethoxy)ethyl]-3-[3-(trifluoromethyl)phenyl]propanamide] | < 10 |
| C[N+]1(C)CCN(C(=O)C(Nc2nc3ccccc3[nH]2)c2cccc(C(F)(F)F)c2)CC1 (centres unmarked) [Example 37, 4-{2-[(1H-1,3-benzodiazol-2-yl)amino]-2-[3-(trifluoromethyl)phenyl]acetyl}-1,1-dimethylpiperazin-1-ium iodide] | 10 to 100 |
| O=C(CC(Nc1nc2ccccc2[nH]1)c1cccc(C(F)(F)F)c1)N1CC[C@H](O)C1 (stereo partly drawn) [Example 15, 3-[(1H-1,3-benzodiazol-2-yl)amino]-1-[(3S)-3-hydroxypyrrolidin-1-yl]-3-[3-(trifluoromethyl)phenyl]propan-1-one] | 10 to 100 |
| COCC(=O)NCCNC(=O)CC(Nc1nc2ccccc2[nH]1)c1cccc(C(F)(F)F)c1 (centres unmarked) [Example 62, 3-[(1H-1,3-benzodiazol-2-yl)amino]-N-[2-(2-methoxyacetamido)ethyl]-3-[3-(trifluoromethyl)phenyl]propanamide] | 10 to 100 |
| O=C(CC(Nc1nc2ccccc2[nH]1)c1cccc(C(F)(F)F)c1)NCC1CCCO1 (centres unmarked) [Example 8, 3-[(1H-1,3-benzodiazol-2-yl)amino]-N-(oxolan-2-ylmethyl)-3-[3-(trifluoromethyl)phenyl]propanamide] | < 10 |
| CN(CCCO)C(=O)CC(Nc1nc2ccccc2[nH]1)c1cccc(C(F)(F)F)c1 (single isomer, unassigned; (-)) [Example 17a, (−) 3-[(1H-1,3-benzodiazol-2-yl)amino]-N-(3-hydroxypropyl)-N-methyl-3-[3-(trifluoromethyl)phenyl]propanamide] | < 10 |
| O=C(CC(Nc1nc2ccccc2[nH]1)c1cccc(C(F)(F)F)c1)NCCCO (centres unmarked) [Example 16, 3-[(1H-1,3-benzodiazol-2-yl)amino]-N-(3-hydroxypropyl)-3-[3-(trifluoromethyl)phenyl]propanamide] | 10 to 100 |
| COCCNC(=O)CC(Nc1nc2ccccc2[nH]1)c1cccc(SC2CCC2)c1 (centres unmarked) [Example 87, 3-[(1H-1,3-benzodiazol-2-yl)amino]-3-[3-(cyclobutylsulfanyl)phenyl]-N-(2-methoxyethyl)propanamide] | < 10 |
| CNCCN(C)C(=O)CC(Nc1nc2ccccc2[nH]1)c1cccc(C(F)(F)F)c1 (centres unmarked) [Example 44, 3-[(1H-1,3-benzodiazol-2-yl)amino]-N-methyl-N-[2-(methylamino)ethyl]-3-[3-(trifluoromethyl)phenyl]propanamide] | 10 to 100 |
| COCCNC(=O)CC(C)(Nc1nc2cc(F)ccc2[nH]1)c1cccc(C(F)(F)F)c1 (centres unmarked) [Example 91, 3-[(5-fluoro-1H-1,3-benzodiazol-2-yl)amino]-N-(2-methoxyethyl)-3-[3-(trifluoromethyl)phenyl]butanamide] | < 10 |
| Cc1ncc(CNC(=O)CC(Nc2nc3ccccc3[nH]2)c2cccc(C(F)(F)F)c2)s1 (centres unmarked) [Example 77, 3-[(1H-1,3-benzodiazol-2-yl)amino]-N-[(2-methyl-1,3-thiazol-5-yl)methyl]-3-[3-(trifluoromethyl)phenyl]propanamide] | < 10 |
| O=C(CC(Nc1nc2ccccc2[nH]1)c1cccc(C(F)(F)F)c1)NCc1ncco1 (centres unmarked) [Example 18, 3-[(1H-1,3-benzodiazol-2-yl)amino]-N-[(1,3-oxazol-2-yl)methyl]-3-[3-(trifluoromethyl)phenyl]propanamide] | < 10 |
| CN(CC#N)C(=O)CC(Nc1nc2c(CO)cccc2[nH]1)c1cccc(C(F)(F)F)c1 (centres unmarked) [Example 50, N-(cyanomethyl)-3-{[4-(hydroxymethyl)-1H-1,3-benzodiazol-2-yl]amino}-N-methyl-3-[3-(trifluoromethyl)phenyl]propanamide] | 10 to 100 |
| COCCNC(=O)CC(Nc1nc2c(C)c(F)ccc2[nH]1)c1cccc(C(F)(F)F)c1 (centres unmarked) [Example 96, 3-[(5-fluoro-4-methyl-1H-1,3-benzodiazol-2-yl)amino]-N-(2-methoxyethyl)-3-[3-(trifluoromethyl)phenyl]propanamide] | 10 to 100 |

Next, values leading:

| IC50 [µM] | SMILES |
| --- | --- |
| < 10 | CCN(CCO)C(=O)CC(Nc1nc2ccccc2[nH]1)c1cccc(C(F)(F)F)c1 (single isomer, unassigned; (-)) [Example 41a, (−)3-[(1H-1,3-benzodiazol-2-yl)amino]-N-ethyl-N-(2-hydroxyethyl)-3-[3-(trifluoromethyl)phenyl]propanamide] |
| 10 to 100 | CCN(CCO)C(=O)C(Nc1nc2ccccc2[nH]1)c1cccc(C(F)(F)F)c1 (single isomer, unassigned; (+)) [Example 38b, (+)2-[(1H-1,3-benzodiazol-2-yl)amino]-N-ethyl-N-(2-hydroxyethyl)-2-[3-(trifluoromethyl)phenyl]acetamide] |
| < 10 | COC(=O)CN(C)C(=O)CC(Nc1nc2ccccc2[nH]1)c1cccc(C(F)(F)F)c1 (single isomer, unassigned; (-)) [Example 57a, (−)Methyl 2-{3-[(1H-1,3-benzodiazol-2-yl)amino]-N-methyl-3-[3-(trifluoromethyl)phenyl]propanamido}acetate] |
| 10 to 100 | CCN(CCO)C(=O)CC(Nc1nc2ccccc2[nH]1)c1ccc(Cl)c(C)c1 (single isomer, unassigned; (+)) [Example 40b, (+)3-[(1H-1,3-benzodiazol-2-yl)amino]-3-(4-chloro-3-methylphenyl)-N-ethyl-N-(2-hydroxyethyl)propanamide] |
| 10 to 100 | CN1CCN(C(=O)C(Nc2nc3ccccc3[nH]2)c2cccc(C(F)(F)F)c2)CC1 (single isomer, unassigned; (-)) [Example 27a, (−)2-[(1H-1,3-benzodiazol-2-yl)amino]-1-(4-methylpiperazin-1-yl)-2-[3-(trifluoromethyl)phenyl]ethan-1-one] |
| < 10 | COC[C@H](NC(=O)CC(Nc1nc2ccccc2[nH]1)c1cccc(SC(F)(F)F)c1)c1ccccc1 (single isomer, unassigned) [Example 70a] |
| < 10 | CN(CC#N)C(=O)CC(Nc1nc2ccccc2[nH]1)c1cccc(C(F)(F)F)c1 (single isomer, unassigned; (-)) [Example 56a, (−)3-[(1H-1,3-benzodiazol-2-yl)amino]-N-(cyanomethyl)-N-methyl-3-[3-(trifluoromethyl)phenyl]propanamide] |
| < 10 | O=C(CC(Nc1nc2ccccc2[nH]1)c1cccc(C(F)(F)F)c1)NCCOCC(F)(F)F (single isomer, unassigned) [Example 68a, 3-[(1H-1,3-benzodiazol-2-yl)amino]-N-[2-(2,2,2-trifluoroethoxy)ethyl]-3-[3-(trifluoromethyl)phenyl]propanamide] |

From US11274092B2, “Potassium channel inhibitors” (ACESION PHARMA ApS, priority 2016, dated 2022)
